Source: article PMC6478823, “A suite of phenotypic assays to ensure pipeline diversity when prioritizing drug-like Cryptosporidium growth inhibitors” (Nature Communications, 2019)
Values joined by “and” are separate entries in the source; they are usually repeats but may differ in a detail not shown here. Identical values can stand only once. Like-named read-outs stand apart in the source and are kept apart here.

How the values were obtained:
[1] = system: C. parvum DMC1 expression; test: Sexual differentiation assay (DMC1 expression); type: cell-based, Cryptosporidium parvum; settings: for Asexual to sexual differentiation: Mean % DMC1 inhibition (normalized to host nuclei), Average: average of replicates; for Asexual to sexual differentiation: Mean % DMC1 inhibition (normalized to host nuclei), Replicate 1a: single replicate 1; for Asexual to sexual differentiation: Mean % DMC1 inhibition (normalized to host nuclei), Replicate 2a: single replicate 2; for 48 - 72 h DMC1 (asexual to sexual conversion): Mean % DMC1 inhibition (normalized to host nuclei): replicates 1-2; for Asexual to sexual differentiation: Mean % DMC1 inhibition (normalized to host nuclei), Replicate 3a: single replicate 3
Excerpt: We utilized DMC1 as a marker of C. parvum sexual development, and used the anti-DMC1 monoclonal antibody to develop a moderate-throughput high-content microscopy assay for characterizing anticryptosporidial compounds (Fig. 6a). […] Therefore, in order to enable numerical comparison of the ability of compounds to block sexual development with moderate throughput, we adopted a strategy of reporting the percent inhibition of DMC1 expression by the previously determined EC90 of each compound in the standard asexual development assay (Fig. 6c and Supplementary Table 2).
Fig. 6 Assay to measure asexual-to-sexual-stage conversion. a Schematic of the experimental approach. […] For b and c the mean and SD combined from at least two biological replicates with four technical replicates per experiment are shown. […] At given time points post-infection, infected cells were washed 3 times with PBS containing 111 mM of D-galactose, fixed for 15 min at room temperature with 4% paraformaldehyde in PBS, and permeabilized with 0.25% triton X-100 in PBS for 10 min at 37 °C. Cells were then washed 3 times with PBS and blocked at least overnight at 4 °C with 1% BSA in PBS (blocking buffer). Cells were stained with monoclonal antibody (1H10G7), either neat culture supernatant or 12.8 µg/mL of purified IgG in blocking buffer for 1 h at 37 °C, followed by 2 washes with PBS. Cells were then co-stained with a 1:500 dilution (4 µg/mL) of Alexa Fluor 568 goat anti-mouse IgG (Invitrogen, catalog# A-11004) and 1.33 µg/mL fluorescein-labeled Vicia villosa lectin (Vector Laboratories, catalog# FL-1231) diluted in blocking buffer for 1 h at 37 °C. Stains were then removed and 0.09 mM Hoechst 33258 (AnaSpec, catalog# AS-83219) also diluted in blocking buffer was added for another 15 min at 37 °C, followed by 2 PBS washes and imaging on a Nikon Eclipse Ti2000 epifluorescence microscope run with NIS-Elements Advanced Research software (Nikon, USA) and equipped with an EXi blue fluorescent microscopy camera (QImaging, Canada). For enumerating parasites, tiled 2 × 2 images with 15% overlapping edges were taken using a 40 × dry objective (0.7 NA), and for finer details, Z stack images were acquired using a 60 × oil objective (1.4 NA). Lectin positive cells in focus were first counted, followed by DMC1.
For compound dose-response studies, the same assay was performed in 384-well plates and imaged using a 20 × dry objective (NA = 0.45). Tiled 4 × 4 to 6 × 6 images were taken. Images were analyzed using ImageJ software and the custom macro provided in Supplementary Method 2.

C. parvum = test: 48 h Cryptosporidium growth inhibition assay; type: cell-based, Cryptosporidium parvum; settings: for EC90: compound added 3 h post-infection, read at 48 h; for 0 - 48 h V. villosa lectin (asexual): Mean % Inhibition (parasites): replicates 1-2
Excerpt: As a first step in developing specific Cryptosporidium mode of action assays, we conducted a series of light microscopy time-lapse and transmission electron microscopy (TEM) time course experiments in order to precisely define C. parvum development within the HCT-8 cell culture system. […] This synchronicity was exploited by modifying a previously developed high-content microscopy assay. These assay modifications enabled the evaluation of several key events within the life cycle: host cell invasion, intracellular replication, host cell egress and establishment of new parasitophorous vacuoles, and sexual differentiation. […] Since the methods all used automated liquid handling, imaging, and image analysis, the assay methods all incorporated nuclear staining to monitor host cell numbers and enable recognition of HCT-8 cell monolayer damage, for example as an artifact from a malfunctioning plate washer or from unanticipated cytotoxicity of the compounds.
Human ileocecal adenocarcinoma (HCT-8) cells were purchased from ATCC (catalog# CCL-244) and cultured in ATCC modified RPMI-1640 medium (Gibco, catalog# A10491–01), supplemented with 10% heat-inactivated fetal bovine serum (Sigma-Aldrich, catalog# 12306C) and 120 U/mL penicillin and 120 μg/mL streptomycin (Gibco, catalog# 15140-122) (culture media). […] For all experiments, HCT-8 cells between passages 9 and 39 were used. C. parvum (Iowa isolate) oocysts were purchased from Bunchgrass Farm (Deary, ID), stored at 4 °C and used within 5 months of collection from an infected calf. To induce excystation, oocysts were first treated with 10 mM hydrochloric acid for 10 min at 37 °C, spun at 14,000×g for 4.5 min at room temperature, treated with 2 mM sodium taurocholate for 10 min at 16 °C, spun as before, and resuspended in culture media for infection.
A modification of a previously reported immunofluorescence assay was used to determine the EC50 and EC90 of compounds[13]. HCT-8 cells were grown to ≥ 90% confluence in 384-well plates (Corning, catalog# 353962) and infected with 5500 oocysts per well after they were induced for excystation as described above. Different concentrations of compounds were added 3 h post-infection and plates were incubated for another 45 h in a 5% CO2 incubator at 37 °C. Wells were then washed 3 times with PBS containing 111 mM D-galactose (PBS-D-gal), fixed with 4% paraformaldehyde (PFA) in PBS for 15 min at room temperature, permeabilized with 0.25% Triton X-100 for 10 min at 37 °C, washed 3 times with PBS with 0.1% Tween 20, and blocked with 4% bovine serum albumin (BSA) in PBS for 2 h at 37 °C or 4 °C overnight. Parasitophorous vacuoles were stained with 1.33 µg/mL of fluorescein-labeled Vicia villosa lectin (Vector Laboratories, catalog# FL-1231) diluted in 1% BSA in PBS with 0.1% Tween 20 for 1 h at 37 °C, followed by addition of Hoechst 33258 (AnaSpec, catalog# AS-83219) at 0.09 mM diluted in water for another 15 min at 37 °C. Wells were then washed 5 times with PBS containing 0.1% Tween 20. A Nikon Eclipse Ti2000 epifluorescence microscope with an automated stage was programmed using NIS-Elements Advanced Research software (Nikon, USA) to focus on the center of each well and take a 3 × 3 or 6 × 6 composite image using an EXi blue fluorescence microscopy camera (QImaging, Canada) with a 20 × objective (NA = 0.45). Nuclei and parasite images were separately exported as.tif files and analyzed using macros developed on the ImageJ platform (National Institutes of Health)[13].

[2] = compound at asexual EC90, 48-72 h
[3] = B-1 at log[MMV006169] (µM) 0.22
[4] = B-1 at log[MMV006169] (µM) 0.52
[5] = B-1 at log[MMV006169] (µM) 1.00
[6] = read-out: Regular 3 to 48 h assay in vitro EC90, C. parvum in HCT-8 cells

O=c1[nH]c(=O)n([C@H]2C[C@H](O)[C@@H](CO)O2)cc1F [Floxuridine]
Asexual to sexual differentiation: Mean % DMC1 inhibition (normalized to host nuclei), Average [1, 2]: -7.53%
Asexual to sexual differentiation: Mean % DMC1 inhibition (normalized to host nuclei), Replicate 1a [1, 2]: -14.02%
Asexual to sexual differentiation: Mean % DMC1 inhibition (normalized to host nuclei), Replicate 2a [1, 2]: -1.05%
EC90 (C. parvum; Cryptosporidium parvum, read-out: Regular 3 to 48 h assay in vitro EC90, C. parvum in HCT-8 cells): 0.14 µM

c1ccc(CNc2nc(Nc3ccccc3)nc3ccccc23)cc1 [B-1]
48 - 72 h DMC1 (asexual to sexual conversion): Mean % DMC1 inhibition (normalized to host nuclei) [1, 3]: -6.54% and 4.81%
48 - 72 h DMC1 (asexual to sexual conversion): Mean % DMC1 inhibition (normalized to host nuclei) [1, 4]: -9.41% and 15.73%
48 - 72 h DMC1 (asexual to sexual conversion): Mean % DMC1 inhibition (normalized to host nuclei) ([1]; B-1 at log[MMV006169] (µM) 0.70): -14.15% and 22.48%
48 - 72 h DMC1 (asexual to sexual conversion): Mean % DMC1 inhibition (normalized to host nuclei) [1, 5]: 25.47% and 51.27%
48 - 72 h DMC1 (asexual to sexual conversion): Mean % DMC1 inhibition (normalized to host nuclei) ([1]; B-1 at log[MMV006169] (µM) -0.25): 2.94% and -1.61%
48 - 72 h DMC1 (asexual to sexual conversion): Mean % DMC1 inhibition (normalized to host nuclei) ([1]; B-1 at log[MMV006169] (µM) -0.73): 13.51% and -3.18%
48 - 72 h DMC1 (asexual to sexual conversion): Mean % DMC1 inhibition (normalized to host nuclei) ([1]; B-1 at log[MMV006169] (µM) -1.21): 14.75% and -24.05%
48 - 72 h DMC1 (asexual to sexual conversion): Mean % DMC1 inhibition (normalized to host nuclei) ([1]; B-1 at log[MMV006169] (µM) -1.69): 19.37% and -12.74%
48 - 72 h DMC1 (asexual to sexual conversion): Mean % DMC1 inhibition (normalized to host nuclei) ([1]; B-1 at log[MMV006169] (µM) -2.16): 9.35% and -23.05%
activity in the DMC1 (sexual development) assay relative to asexual assay ([1]; compound added at 48 h, read at 72 h, result in words): less potent when used during the sexual phases of development
Asexual to sexual differentiation: Mean % DMC1 inhibition (normalized to host nuclei), Average [1, 2]: 18.08%
Asexual to sexual differentiation: Mean % DMC1 inhibition (normalized to host nuclei), Replicate 1a [1, 2]: 32.96%
Asexual to sexual differentiation: Mean % DMC1 inhibition (normalized to host nuclei), Replicate 2a [1, 2]: -3.57%
Asexual to sexual differentiation: Mean % DMC1 inhibition (normalized to host nuclei), Replicate 3a [1, 2]: 17.22%
Asexual to sexual differentiation: Mean % DMC1 inhibition (normalized to host nuclei), Replicate 4a ([1]; compound at asexual EC90, 48-72 h, single replicate 4): 25.70%
EC50 ([1]; inhibition of DMC1 expression from 48 to 72 h, range in brackets, read-out: 48 − 72 h DMC1 (asexual to sexual conversion): EC50): 11 µM
0 - 48 h V. villosa lectin (asexual): Mean % Inhibition (parasites) (C. parvum; [3]): 61.21% and 81.70%
0 - 48 h V. villosa lectin (asexual): Mean % Inhibition (parasites) (C. parvum; [4]): 87.47% and 92.32%
0 - 48 h V. villosa lectin (asexual): Mean % Inhibition (parasites) (C. parvum; B-1 at log[MMV006169] (µM) 0.82): 91.12% and 90.37%
0 - 48 h V. villosa lectin (asexual): Mean % Inhibition (parasites) (C. parvum; [5]): 88.49% and 90.28%
0 - 48 h V. villosa lectin (asexual): Mean % Inhibition (parasites) (C. parvum; B-1 at log[MMV006169] (µM) -0.18): 5.34% and 39.84%
0 - 48 h V. villosa lectin (asexual): Mean % Inhibition (parasites) (C. parvum; B-1 at log[MMV006169] (µM) -0.65): -11.45% and 6.00%
0 - 48 h V. villosa lectin (asexual): Mean % Inhibition (parasites) (C. parvum; B-1 at log[MMV006169] (µM) -1.13): -7.55% and -4.41%
0 - 48 h V. villosa lectin (asexual): Mean % Inhibition (parasites) (C. parvum; B-1 at log[MMV006169] (µM) -1.61): -3.87% and -15.36%
0 - 48 h V. villosa lectin (asexual): Mean % Inhibition (parasites) (C. parvum; B-1 at log[MMV006169] (µM) -2.08): -14.75% and -13.18%
EC50 (C. parvum; read-out: 0 − 48 h V. villosa lectin (asexual): EC50, asexual growth assay, first 48 h, range in brackets): 1 µM
EC90 (C. parvum; [6]): 2.27 µM

NC[C@@H]1O[C@H](O[C@H]2[C@@H](O)[C@H](O[C@@H]3[C@@H](O)[C@H](N)C[C@H](N)[C@H]3O[C@H]3O[C@H](CO)[C@@H](O)[C@H](O)[C@H]3N)O[C@@H]2CO)[C@H](N)[C@@H](O)[C@@H]1O [Paromomycin]
Asexual to sexual differentiation: Mean % DMC1 inhibition (normalized to host nuclei), Average [1, 2]: 43.80%
Asexual to sexual differentiation: Mean % DMC1 inhibition (normalized to host nuclei), Replicate 1a [1, 2]: 58.59%
Asexual to sexual differentiation: Mean % DMC1 inhibition (normalized to host nuclei), Replicate 2a [1, 2]: 65.91%
Asexual to sexual differentiation: Mean % DMC1 inhibition (normalized to host nuclei), Replicate 3a [1, 2]: 6.88%
EC90 (C. parvum; Cryptosporidium parvum, HCT-8, read-out: Regular 3 to 48 h assay in vitro EC90, C. parvum in HCT-8 cells): 2390 µM

CCOc1ccc(Cl)c2c1B(O)OC2CN (stereo not shown) [AN6426]
Asexual to sexual differentiation: Mean % DMC1 inhibition (normalized to host nuclei), Average [1, 2]: 62.47%
Asexual to sexual differentiation: Mean % DMC1 inhibition (normalized to host nuclei), Replicate 1a [1, 2]: 60.83%
Asexual to sexual differentiation: Mean % DMC1 inhibition (normalized to host nuclei), Replicate 2a [1, 2]: 64.12%
EC90 (C. parvum; [6]): 19.5 µM
